Test results: PMC6520677, “Marine Fungi from the Sponge Grantia compressa: Biodiversity, Chemodiversity, and Biotechnological Potential” (Marine Drugs, 2019)
Converted amounts (≈) assume the structure as drawn. Where two headings read alike, the source gives them in different places.

Experiments:
[1] = tested on: macrolide-resistant S. pneumoniae Monza-82; test: MIC, broth microdilution (CLSI); assay type: cell-based, Streptococcus pneumoniae; details: for sensitivity of the strain to the compound: S. pneumoniae Monza-82
[2] = tested on: macrolide-resistant S. pneumoniae Monza-82; test: MBC determination (plating of MIC wells); assay type: cell-based, Streptococcus pneumoniae; details: for bactericidal activity: S. pneumoniae Monza-82 strain only; for MBC: Streptococcus pneumoniae
Protocol: (§1) Plates were incubated at 37 °C in aerobic conditions or in 5% CO2 atmosphere and checked for bacterial growth after 24 h.

S. aureus strains = test: MIC, summary in text for S. aureus strains; details: Staphylococcus aureus
Protocol: (§2) Representatives of Gram-positive and Gram-negative bacteria were selected for the antimicrobial susceptibility tests. Three Gram-positive reference strains (Staphylococcus aureus ATCC 29213, Streptococcus pneumoniae ATCC 49619, and Enterococcus faecalis ATCC 29212) and two Gram-negative reference strains (Escherichia coli ATCC 25922 and Pseudomonas aeruginosa ATCC 27853) were used. Furthermore, antibacterial activity of the isolated compounds was also assessed against recently isolated clinical strains, selected and characterized as resistant or multidrug-resistant (MDR), from the MicroMiB collection owned and maintained by the Laboratory of Clinical Microbiology and Virology of the University of Milano-Bicocca, Monza, Italy: a methicillin-resistant Staphylococcus aureus (MRSA) Monza-PFI, a fluoroquinolone-resistant S. aureus Monza-FD1, and a macrolide-resistant S. pneumoniae Monza-82.
(§3) MICs were determined following Clinical and Laboratory Standards Institute (CLSI) guidelines for the broth microdilution method [33]. […]
(§4) The plates were incubated at 37 °C for 18–24 h. After the incubation, each well was checked for the absence of bacterial pellets and the clearness of the solution; then, the MIC value (μg/mL), defined as the lowest concentration of antimicrobial agent causing visible inhibition of bacterial growth, was determined.

[3] = tested on: methicillin-resistant Staphylococcus aureus (MRSA) Monza-PFI; test: MIC, broth microdilution (CLSI); assay type: cell-based
[4] = tested on: Streptococcus pneumoniae ATCC 49619; test: MIC, broth microdilution (CLSI); assay type: cell-based
[5] = tested on: Pseudomonas aeruginosa ATCC 27853; test: MIC, broth microdilution (CLSI); assay type: cell-based
[6] = tested on: Staphylococcus aureus ATCC 29213; test: MBC determination (plating of MIC wells); assay type: cell-based
Protocol: as §1

[7] = tested on: methicillin-resistant Staphylococcus aureus (MRSA) Monza-PFI; test: MBC determination (plating of MIC wells); assay type: cell-based
Protocol: as §1

[8] = tested on: fluoroquinolone-resistant S. aureus Monza-FD1; test: MBC determination (plating of MIC wells); assay type: cell-based; details: Staphylococcus aureus
Protocol: as §1

[9] = tested on: Escherichia coli ATCC 25922; test: MIC, broth microdilution (CLSI); assay type: cell-based
[10] = tested on: Enterococcus faecalis ATCC 29212; test: MIC, broth microdilution (CLSI); assay type: cell-based
[11] = tested on: fluoroquinolone-resistant S. aureus Monza-FD1; test: MIC, broth microdilution (CLSI); assay type: cell-based, Staphylococcus aureus
[12] = tested on: Mycobacterium tuberculosis; design: method as in ref 86 Ganihigama et al.; details: ref 86 Ganihigama et al.; cited from earlier work
[13] = tested on: Staphylococcus aureus ATCC 29213; test: MIC, broth microdilution (CLSI); assay type: cell-based
[14] = tested on: Enterococcus faecalis ATCC 29212; test: MBC determination (plating of MIC wells); assay type: cell-based
Protocol: as §1

[15] = tested on: reference and MRSA S. aureus strains; design: method as in PMID 23024574; details: low concentration tested; cited from earlier work
[16] = tested on: influenza A virus strain A/Puerto Rico/8/34 (IAV); test: Plaque reduction assay (PRA) on MDCK cells; assay type: cell-based
[17] = tested on: reference strains and multidrug-resistant isolates; test: Antibacterial activity, whole panel (MIC); details: concentrations tested 0.015–32 μg/mL
Protocol: as §2, §3, §4

in vitro [18] = details: dog
Protocol: (§5) African green monkey kidney cells (VERO, ATCC-American Type Culture Collection CCL-81) and Madin Darby Canine Kidney cells (MDCK, ATCC® CRL-2936™) were propagated in Dulbecco’s modified Eagle medium (DMEM; Euroclone), supplemented with 10% fetal bovine serum (FBS; Euroclone), 2 mM L-glutamine, 1 mM sodium pyruvate, 100 U/mL penicillin, and 100 μg/mL streptomycin sulfate.
(§6) The plates were incubated for 48 h at 37 °C, and then 100 μL of CellTiter-Glo reagent (Promega) was added to lyse the cells and to determine cell viability according to the producer’s instructions.

in vitro [19] = details: African green monkey
Protocol: as §5, §6

bacteria tested = test: Bactericidal activity, whole panel (MBC); assay type: cell-based; details: most of the bacteria tested
Protocol: as §1

MDCK cells = test: Cytotoxicity assay (CellTiter-Glo); details: MDCK cells, lowest dose 12.5 µg/mL, 48 h
Protocol: as §5, §6

[20] = Cytotoxicity assay (CellTiter-Glo); details: dog
Protocol: as §5, §6

Gram-positive bacteria = test: MIC, summary in text for Gram-positive bacteria; details: majority of Gram-positive bacteria tested (except S. pneumoniae ATCC 49619)
Protocol: as §2, §3, §4

[21] = tested on: herpes simplex virus 1 (HSV-1) clinical isolate; test: Plaque reduction assay (PRA) on VERO cells; assay type: cell-based; details: 48 h p.i.
Klebsiella pneumoniae = tested on: Klebsiella pneumoniae; design: method as in PMID 16261521; details: cited from earlier work
P. aeruginosa = tested on: P. aeruginosa; design: method as in PMID 16261521; details: cited from earlier work
Micrococcus luteus = tested on: Micrococcus luteus; design: method as in PMID 16261521; details: cited from earlier work
bacteria = tested on: bacteria; design: method as in ref 20 Zin et al.; details: ref 20 Zin et al.; cited from earlier work
[22] = Streptococcus pneumoniae, S. pneumoniae Monza 82 (macrolide-resistant), read-out: MIC
[23] = S. pneumoniae Monza 82 (macrolide-resistant), read-out: MBC
[24] = S. aureus Monza-PFI (MRSA), read-out: MIC
[25] = ATCC49619, S. pneumoniae ATCC 49619, read-out: MIC
[26] = ATCC27853, P. aeruginosa ATCC 27853, read-out: MIC
[27] = ATCC29213, S. aureus ATCC 29213, read-out: MBC
[28] = S. aureus Monza-PFI (MRSA), read-out: MBC
[29] = S. aureus Monza-FD1 (fluoroquinolone-resistant), read-out: MBC
[30] = ATCC25922, E. coli ATCC 25922, read-out: MIC
[31] = ATCC29212, E. faecalis ATCC 29212, read-out: MIC
[32] = Staphylococcus aureus, S. aureus Monza-FD1 (fluoroquinolone-resistant), read-out: MIC
[33] = ATCC29213, S. aureus ATCC 29213, read-out: MIC
[34] = Influenza A virus, MDCK, 48 h, read-out: inhibition of replication of IAV

Row | Compound | MIC [1, 22] | MBC [2, 23] | MIC [3, 24] | MIC [4, 25] | MIC [5, 26] | MIC [9, 30] | MIC [10, 31] | MIC [11, 32] | MIC [13, 33] | also measured
1 | COc1cc(O)cc2cc3c(c(O)c12)C(=O)C[C@](C)(O)C3 [Asperflavin (8), asperflavin] | 32 µg/mL (≈ 111 µM) | 128 µg/mL (≈ 444 µM) | 128 µg/mL (≈ 444 µM) | > 128 µg/mL | > 128 µg/mL | > 128 µg/mL | > 128 µg/mL | 64 µg/mL (≈ 222 µM) | 64 µg/mL (≈ 222 µM) | bactericidal activity [2]: positive results; MIC (S. aureus strains): 64 µg/mL (≈ 222 µM); MBC [6, 27]: > 128 µg/mL; MBC [7, 28]: > 128 µg/mL; MBC [8, 29]: > 128 µg/mL; MIC [12]: 25 µg/mL (≈ 86.7 µM)
2 | COc1cc(O)c2c(c1)C(=O)c1cc(C)c(C(=O)O)c(O)c1C2=O [Cinnalutein (9), cinnalutein] | 32 µg/mL (≈ 97.5 µM) | > 128 µg/mL | > 128 µg/mL | > 128 µg/mL | > 128 µg/mL | > 128 µg/mL | > 128 µg/mL | 128 µg/mL (≈ 390 µM) | > 128 µg/mL | MIC ([1]; S. pneumoniae Monza 82 (macrolide-resistant)): 32 µg/mL (≈ 97.5 µM); MBC [8, 29]: > 128 µg/mL; MIC ([11]; S. aureus Monza-FD1 (fluoroquinolone-resistant)): 128 µg/mL (≈ 390 µM)
3 | C[C@@H]1NC(=O)[C@H](Cc2c[nH]c3ccccc23)NC1=O [Cyclo-L-Trp-L-Ala (10), cyclo-L-Trp-L-Ala] | > 128 µg/mL |  | > 128 µg/mL | > 128 µg/mL | > 128 µg/mL | > 128 µg/mL | > 128 µg/mL | > 128 µg/mL | > 128 µg/mL | 
4 | CCC/C=C/C=C/c1c(O)cc(CC=C(C)C)c(O)c1C=O [Dihydroauroglaucin (4), dihydroauroglaucin] | 8 µg/mL (≈ 26.6 µM) | 32 µg/mL (≈ 107 µM) | 128 µg/mL (≈ 426 µM) | > 128 µg/mL | > 128 µg/mL | > 128 µg/mL | 64 µg/mL (≈ 213 µM) | 128 µg/mL (≈ 426 µM) | 128 µg/mL (≈ 426 µM) | bactericidal activity [2]: positive results; MIC (S. aureus strains): 128 µg/mL (≈ 426 µM); MBC ([14]; ATCC29212, E. faecalis ATCC 29212, read-out: MBC): > 128 µg/mL; MBC [6, 27]: > 128 µg/mL; MBC [7, 28]: > 128 µg/mL; MBC [8, 29]: > 128 µg/mL; antibacterial activity [15]: inactive; inhibition of replication of IAV [16]: completely inhibited; inhibition at 25 µg/mL [16, 34]: 100%
5 | C=CC(C)(C)c1[nH]c2c(CC=C(C)C)cc(CC=C(C)C)cc2c1C[C@@H]1NC(=O)[C@H](C)NC1=O [Echinulin (1), echinulin] |  |  |  |  |  |  |  |  |  | MIC ([1]; Streptococcus pneumoniae): > 128 µg/mL; MIC ([3]; MRSA): > 128 µg/mL; MIC ([4]; ATCC49619): > 128 µg/mL; MIC ([5]; ATCC27853): > 128 µg/mL; MIC ([9]; ATCC25922): > 128 µg/mL; MIC ([10]; ATCC29212): > 128 µg/mL; MIC ([11]; Staphylococcus aureus): > 128 µg/mL; MIC ([13]; ATCC29213): > 128 µg/mL
6 | CC[C@H]1OC(=O)[C@H](C)[C@@H](O[C@H]2C[C@@](C)(OC)[C@@H](O)[C@H](C)O2)[C@H](C)[C@@H](O[C@@H]2O[C@H](C)C[C@H](N(C)C)[C@H]2O)[C@](C)(O)C[C@@H](C)C(=O)[C@H](C)[C@@H](O)[C@]1(C)O [Erythromycin, erythromycin, reference compound] | 16 µg/mL (≈ 21.8 µM) |  | 8 µg/mL (≈ 10.9 µM) | 0.12 µg/mL (≈ 0.164 µM) |  |  | 2 µg/mL (≈ 2.73 µM) | 0.5 µg/mL (≈ 0.681 µM) | 0.5 µg/mL (≈ 0.681 µM) | 
7 | CCCCCCCc1c(O)cc(CC=C(C)C)c(O)c1C=O [Flavoglaucin (5), flavoglaucin] | > 32 µg/mL |  | > 32 µg/mL | > 32 µg/mL | > 32 µg/mL | > 32 µg/mL | > 32 µg/mL | > 32 µg/mL | > 32 µg/mL | antibacterial activity [17]: did not show antibacterial activity; CC50 at 48 h (in vitro [18]): < 12.5 µg/mL; CC50 at 48 h (in vitro [19]): < 12.5 µg/mL
8 | CC(=O)O[C@H]1C[C@@]2(C)[C@@H](C[C@@H](O)[C@H]3[C@@]4(C)CC[C@@H](O)[C@@H](C)[C@@H]4CC[C@@]32C)/C1=C(\CCC=C(C)C)C(=O)O [Fusidic acid, fusidic acid, reference compound] |  |  |  | 4 µg/mL (≈ 7.74 µM) |  |  | 4 µg/mL (≈ 7.74 µM) |  | 0.12 µg/mL (≈ 0.232 µM) | 
9 | CNC(C)C1CCC(N)C(OC2C(N)CC(N)C(OC3OCC(C)(O)C(NC)C3O)C2O)O1 (stereo not shown) [Gentamicin, reference compound] |  |  | > 128 µg/mL |  | 1 µg/mL (≈ 2.09 µM) | 0.5 µg/mL (≈ 1.05 µM) | > 128 µg/mL | 1 µg/mL (≈ 2.09 µM) | 0.5 µg/mL (≈ 1.05 µM) | 
10 | C/C=C/C=C/CCc1c(O)cc(CC=C(C)C)c(O)c1C=O [Isodihydroauroglaucin (6), isodihydroauroglaucin] |  |  |  | > 128 µg/mL | > 128 µg/mL | > 128 µg/mL | 64 µg/mL (≈ 213 µM) |  | 64 µg/mL (≈ 213 µM) | MIC ([1]; Streptococcus pneumoniae): 4 µg/mL (≈ 13.3 µM); MBC [2]: 16 µg/mL (≈ 53.3 µM); bactericidal activity (bacteria tested): bactericidal activity; cell toxicity (not toxic = at least 70% cell viability) (MDCK cells): toxic; CC50 at 48 h [20]: < 12.5 µg/mL; MIC ([3]; MRSA): 64 µg/mL (≈ 213 µM); MBC ([14]; ATCC29212): > 128 µg/mL; MBC ([6]; ATCC29213): 128 µg/mL (≈ 426 µM); MBC ([7]; MRSA): 128 µg/mL (≈ 426 µM); MBC [8]: 64 µg/mL (≈ 213 µM); MIC values range (Gram-positive bacteria): 4 to 64 µg/mL; MIC ([11]; Staphylococcus aureus): 32 µg/mL (≈ 107 µM)
11 | C=CC(C)(C)c1[nH]c2cc(CC=C(C)C)ccc2c1/C=C1\NC(=O)[C@H](C)NC1=O [Neoechinulin D (7), neoechinulin D] | 64 µg/mL (≈ 163 µM) | > 128 µg/mL | > 128 µg/mL | > 128 µg/mL | > 128 µg/mL | > 128 µg/mL | > 128 µg/mL | > 128 µg/mL | > 128 µg/mL | sensitivity of the strain to the compound [1]: showed sensitivity; inhibition at 50 µg/mL ([21]; Human alphaherpesvirus 1, compound at 50 µg/mL, read-out: inhibition of HSV-1 replication): 100%; inhibition of HSV-1 replication ([21]; compound at 50 µg/mL): total inhibition; inhibition at 50 µg/mL [16, 34]: 70%
12 | COc1cc(O)c2c(c1)C(=O)c1cc(C)cc(O)c1C2=O [Physcion (3), physcion] | 16 µg/mL (≈ 56.3 µM) | > 32 µg/mL | > 32 µg/mL | > 32 µg/mL | > 32 µg/mL | > 32 µg/mL | > 32 µg/mL | > 32 µg/mL | > 32 µg/mL | sensitivity of the strain to the compound [1]: showed sensitivity; MIC (Klebsiella pneumoniae): 250 µg/mL (≈ 879 µM); MIC (P. aeruginosa): 200 µg/mL (≈ 704 µM); MIC (Micrococcus luteus): 200 µg/mL (≈ 704 µM); inhibition at 25 µg/mL ([21]; Human alphaherpesvirus 1, compound at 25 µg/mL, read-out: inhibition of HSV-1 replication): 100%; inhibition of HSV-1 replication ([21]; compound at 25 µg/mL): total inhibition; antibacterial activity (bacteria): no antibacterial activity; inhibition at 25 µg/mL [16, 34]: 80%
13 | CN(C)[C@@H]1C(O)=C(C(N)=O)C(=O)[C@@]2(O)C(O)=C3C(=O)c4c(O)cccc4[C@@](C)(O)[C@H]3C[C@@H]12 [Tetracycline, tetracycline, reference compound] | ≤ 0.06 µg/mL |  | 1 µg/mL (≈ 2.25 µM) | 0.12 µg/mL (≈ 0.27 µM) | 8 µg/mL (≈ 18 µM) | 1 µg/mL (≈ 2.25 µM) | 8 µg/mL (≈ 18 µM) | 1 µg/mL (≈ 2.25 µM) | 0.12 µg/mL (≈ 0.27 µM) | 
